From patent publication US9023789B2, “Amylin analogs and pharmaceutical compositions thereof” (Novo Nordisk A/S, priority 2012, dated 2015)
Numbered stars: 1 amine (or outer) side, 2 acyl side, 3 side chain; on linkers, the order of the positions; unused ones are H or OH. Bridge positions count the residues as written; N and C are the ends. Side chains are listed from the residue outwards. Peptide text beside a SMILES is read from it. * marks the point of attachment. C20 diacid = O=C(O)CCCCCCCCCCCCCCCCCCC(=O)*; γGlu = O=C(O)[C@H](CCC(=O)[*:2])N[*:1]; AEEA = NCCOCCOCC(=O)O

Experiments:
[1] = target: T1, human amylin 3(a) receptor (human calcitonin receptor + RAMP-3) in BHK570 cells (Homo sapiens, UniProt O60896+P30988); experiment: ASSAY (II)a functional assay, human amylin receptor (CRE luciferase); assay type: cell-based
T1 construct: expressed in transfected cells
T1 sequence (O60896 24-148): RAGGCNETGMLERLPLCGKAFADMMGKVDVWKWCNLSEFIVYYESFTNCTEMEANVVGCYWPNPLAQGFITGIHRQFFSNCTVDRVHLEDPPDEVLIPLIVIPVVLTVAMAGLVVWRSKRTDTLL
T1 sequence (P30988 25-474): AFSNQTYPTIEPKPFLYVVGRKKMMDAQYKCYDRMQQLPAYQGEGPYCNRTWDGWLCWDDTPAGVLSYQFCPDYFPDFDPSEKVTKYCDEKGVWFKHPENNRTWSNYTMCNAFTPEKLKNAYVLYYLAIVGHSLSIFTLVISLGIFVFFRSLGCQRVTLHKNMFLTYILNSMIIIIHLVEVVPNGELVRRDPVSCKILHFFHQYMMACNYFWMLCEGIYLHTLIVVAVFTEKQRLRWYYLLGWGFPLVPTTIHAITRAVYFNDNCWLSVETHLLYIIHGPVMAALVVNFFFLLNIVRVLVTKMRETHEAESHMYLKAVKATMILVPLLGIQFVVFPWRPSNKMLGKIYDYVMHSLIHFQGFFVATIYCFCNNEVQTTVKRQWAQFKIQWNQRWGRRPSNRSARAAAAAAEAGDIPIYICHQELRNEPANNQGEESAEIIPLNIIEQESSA
Procedure, shortened: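 BHK cells stably carrying a CRE-luciferase reporter plus calcitonin receptor, or calcitonin receptor with RAMP-3 for the amylin 3(a) receptor, were seeded and kept overnight at 37° C. Compounds were added in assay medium with 10% FBS and 10 mM Hepes, pH 7.4, for 3 hours at 37° C, then luminescence was counted.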

[2] = ASSAY (III) ThT fibrillation assay for physical stability; assay type: physicochemical
Procedure, shortened: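 Formulations with 1 μM ThT, pH adjusted as required, incubated at 37 °C with 960 rpm orbital shaking; fluorescence (ex 444/em 485 nm) read every 20 min. Fibrillation reported as mean ThT fluorescence ± SD of 4–8 replicates at time points; polypeptide concentration measured by reverse-phase HPLC before and after, post-centrifugation.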

[3] = hCTR funct. EC50 divided by hAmylin-R funct. EC50
[4] = human functional selectivity: hCTR funct. EC50 / hAmylin-R funct. EC50
[5] = hCTR funct. EC50 over hAmylin-R funct. EC50

SMILES	Ratio hCT/hAmylin funct. [1, 3]	Ratio hCT/hAmylin funct. [1, 4]	ThT pH 4.0 lag time (h) [2] [h]	Ratio hCT/hAmylin funct. [1, 5]
CC[C@H](C)[C@H](NC(=O)[C@H](C)NC(=O)CNC(=O)[C@H](Cc1ccccc1)NC(=O)[C@H](CC(N)=O)NC(=O)[C@@H]1CCCN1C(=O)[C@H](CO)NC(=O)[C@H](CO)NC(=O)[C@H](Cc1c[nH]cn1)NC(=O)[C@H](CCCNC(=N)N)NC(=O)[C@H](CC(C)C)NC(=O)[C@H](Cc1ccccc1)NC(=O)[C@H](CC(N)=O)NC(=O)[C@H](C)NC(=O)[C@H](CC(C)C)NC(=O)[C@H](CCCNC(=N)N)NC(=O)[C@H](CCC(N)=O)NC(=O)[C@@H](NC(=O)[C@H](C)NC(=O)[C@@H]1CSSC[C@H](NC(=O)[C@@H](N)CCCCNC(=O)COCCOCCNC(=O)CC[C@H](NC(=O)CCCCCCCCCCCCCCCCCCC(=O)O)C(=O)O)C(=O)N[C@@H](CC(N)=O)C(=O)N[C@@H]([C@@H](C)O)C(=O)N[C@@H](C)C(=O)N[C@@H]([C@@H](C)O)C(=O)N1)[C@@H](C)O)C(=O)N1CCC[C@H]1C(=O)N1CCC[C@H]1C(=O)N[C@@H](CO)C(=O)N[C@H](C(=O)N1CCC[C@H]1C(=O)N[C@H](C(=O)NCC(=O)N[C@@H](CO)C(=O)N[C@@H](CC(N)=O)C(=O)N[C@H](C(=O)N[C@@H](Cc1ccc(O)cc1)C(N)=O)[C@@H](C)O)C(C)C)[C@@H](C)O [Example 53] (H-K([AEEA-γGlu-C20 diacid])CNTATCATQRLANFLRHSSPNFGAIPPSTPVGSNTY-NH2; disulfide 2-7; N-terminus assumed)	9.8	9.8	18	–
CC[C@H](C)[C@H](NC(=O)[C@H](C)NC(=O)CNC(=O)[C@H](Cc1ccccc1)NC(=O)[C@H](CC(N)=O)NC(=O)[C@@H]1CCCN1C(=O)[C@H](CO)NC(=O)[C@H](CO)NC(=O)[C@H](Cc1c[nH]cn1)NC(=O)[C@H](CCCNC(=N)N)NC(=O)[C@H](CC(C)C)NC(=O)[C@H](Cc1ccccc1)NC(=O)[C@H](CC(N)=O)NC(=O)[C@H](C)NC(=O)[C@H](CC(C)C)NC(=O)[C@H](CCCNC(=N)N)NC(=O)[C@H](CCC(N)=O)NC(=O)[C@@H](NC(=O)[C@H](C)NC(=O)[C@@H]1CSSC[C@H](NC(=O)[C@@H](N)CCCCNC(=O)COCCOCCNC(=O)CC[C@H](NC(=O)CCCCCCCCCCCCCCCCCCC(=O)O)C(=O)O)C(=O)N[C@@H](CC(N)=O)C(=O)N[C@@H]([C@@H](C)O)C(=O)N[C@@H](C)C(=O)N[C@@H]([C@@H](C)O)C(=O)N1)[C@@H](C)O)C(=O)N1CCC[C@H]1C(=O)N[C@@H](CO)C(=O)N1CCC[C@H]1C(=O)N[C@H](C(=O)N[C@@H](CC(N)=O)C(=O)N[C@H](C(=O)NCC(=O)N1CCC[C@H]1C(=O)N[C@@H](CC(N)=O)C(=O)N[C@H](C(=O)N[C@@H](Cc1ccc(O)cc1)C(N)=O)[C@@H](C)O)C(C)C)[C@@H](C)O [Example 56] (H-K([AEEA-γGlu-C20 diacid])CNTATCATQRLANFLRHSSPNFGAIPSPTNVGPNTY-NH2; disulfide 2-7 (inferred); N-terminus assumed)	5.0	5.0	22	–
CC[C@H](C)[C@H](NC(=O)[C@H](C)NC(=O)CNC(=O)[C@H](Cc1ccccc1)NC(=O)[C@H](CC(N)=O)NC(=O)[C@@H]1CCCN1C(=O)[C@H](CO)NC(=O)[C@H](CO)NC(=O)[C@H](Cc1c[nH]cn1)NC(=O)[C@H](CCCNC(=N)N)NC(=O)[C@H](CC(C)C)NC(=O)[C@H](Cc1ccccc1)NC(=O)[C@H](CC(N)=O)NC(=O)[C@H](C)NC(=O)[C@H](CC(C)C)NC(=O)[C@H](CCCNC(=N)N)NC(=O)[C@H](CCC(N)=O)NC(=O)[C@@H](NC(=O)[C@H](C)NC(=O)[C@@H]1CSSC[C@H](NC(=O)[C@@H](N)CCCCNC(=O)COCCOCCNC(=O)CC[C@H](NC(=O)CCCCCCCCCCCCCCCCCCC(=O)O)C(=O)O)C(=O)N[C@@H](CC(N)=O)C(=O)N[C@@H]([C@@H](C)O)C(=O)N[C@@H](C)C(=O)N[C@@H]([C@@H](C)O)C(=O)N1)[C@@H](C)O)C(=O)N1CCC[C@H]1C(=O)N[C@@H](CO)C(=O)N[C@@H](CO)C(=O)N[C@H](C(=O)N[C@@H](CC(N)=O)C(=O)N[C@H](C(=O)NCC(=O)N1CCC[C@H]1C(=O)N[C@@H](Cc1c[nH]cn1)C(=O)N[C@H](C(=O)N[C@@H](Cc1ccc(O)cc1)C(N)=O)[C@@H](C)O)C(C)C)[C@@H](C)O [Example 58] (H-K([AEEA-γGlu-C20 diacid])CNTATCATQRLANFLRHSSPNFGAIPSSTNVGPHTY-NH2; disulfide 2-7)	21.9	21.9	38	21.9
CC[C@H](C)[C@H](NC(=O)[C@H](C)NC(=O)CNC(=O)[C@H](Cc1ccccc1)NC(=O)[C@H](CC(N)=O)NC(=O)[C@@H]1CCCN1C(=O)[C@H](CO)NC(=O)[C@H](CO)NC(=O)[C@H](Cc1c[nH]cn1)NC(=O)[C@H](CCCNC(=N)N)NC(=O)[C@H](CC(C)C)NC(=O)[C@H](Cc1ccccc1)NC(=O)[C@H](CCCNC(=N)N)NC(=O)[C@H](C)NC(=O)[C@H](CC(C)C)NC(=O)[C@H](CCCNC(=N)N)NC(=O)[C@H](CCC(N)=O)NC(=O)[C@@H](NC(=O)[C@H](C)NC(=O)[C@@H]1CSSC[C@H](NC(=O)[C@@H](N)CCCCNC(=O)CC[C@H](NC(=O)CCCCCCCCCCCCCCCCCCC(=O)O)C(=O)O)C(=O)N[C@@H](CC(N)=O)C(=O)N[C@@H]([C@@H](C)O)C(=O)N[C@@H](C)C(=O)N[C@@H]([C@@H](C)O)C(=O)N1)[C@@H](C)O)C(=O)N1CCC[C@H]1C(=O)N[C@@H](CO)C(=O)N[C@@H](CO)C(=O)N[C@H](C(=O)N1CCC[C@H]1C(=O)N[C@H](C(=O)NCC(=O)N[C@@H](CO)C(=O)N[C@@H](CC(N)=O)C(=O)N[C@H](C(=O)N[C@@H](Cc1ccc(O)cc1)C(N)=O)[C@@H](C)O)C(C)C)[C@@H](C)O [Example 63] (H-K([γGlu-C20 diacid])CNTATCATQRLARFLRHSSPNFGAIPSSTPVGSNTY-NH2; disulfide 2-7 (inferred); N-terminus assumed)	138.7	138.7	45	138.7
CC[C@H](C)[C@H](NC(=O)[C@H](C)NC(=O)CNC(=O)[C@H](Cc1ccccc1)NC(=O)[C@H](CC(N)=O)NC(=O)[C@@H]1CCCN1C(=O)[C@H](CO)NC(=O)[C@H](CO)NC(=O)[C@H](Cc1c[nH]cn1)NC(=O)[C@H](CCCNC(=N)N)NC(=O)[C@H](CC(C)C)NC(=O)[C@H](Cc1ccccc1)NC(=O)CNC(=O)[C@H](C)NC(=O)[C@H](CC(C)C)NC(=O)[C@H](CCCNC(=N)N)NC(=O)[C@H](CCC(N)=O)NC(=O)[C@@H](NC(=O)[C@H](C)NC(=O)[C@@H]1CSSC[C@H](NC(=O)[C@@H](N)CCCCNC(=O)COCCOCCNC(=O)CC[C@H](NC(=O)CCCCCCCCCCCCCCCCCCC(=O)O)C(=O)O)C(=O)N[C@@H](CC(N)=O)C(=O)N[C@@H]([C@@H](C)O)C(=O)N[C@@H](C)C(=O)N[C@@H]([C@@H](C)O)C(=O)N1)[C@@H](C)O)C(=O)N1CCC[C@H]1C(=O)N[C@@H](CO)C(=O)N[C@@H](CO)C(=O)N[C@H](C(=O)N1CCC[C@H]1C(=O)N[C@H](C(=O)NCC(=O)N[C@@H](CO)C(=O)N[C@@H](CC(N)=O)C(=O)N[C@H](C(=O)N[C@@H](Cc1ccc(O)cc1)C(N)=O)[C@@H](C)O)C(C)C)[C@@H](C)O [Example 71] (H-K([AEEA-γGlu-C20 diacid])CNTATCATQRLAGFLRHSSPNFGAIPSSTPVGSNTY-NH2; disulfide 2-7)	9.4	9.4	11	–
CC[C@H](C)[C@H](NC(=O)[C@H](C)NC(=O)CNC(=O)[C@H](Cc1ccccc1)NC(=O)[C@H](CC(N)=O)NC(=O)[C@@H]1CCCN1C(=O)[C@H](CO)NC(=O)[C@H](CO)NC(=O)[C@H](Cc1c[nH]cn1)NC(=O)[C@H](CCCNC(=N)N)NC(=O)[C@H](CC(C)C)NC(=O)[C@H](Cc1ccccc1)NC(=O)[C@H](CO)NC(=O)[C@H](C)NC(=O)[C@H](CC(C)C)NC(=O)[C@H](CCCNC(=N)N)NC(=O)[C@H](CCC(N)=O)NC(=O)[C@@H](NC(=O)[C@H](C)NC(=O)[C@@H]1CSSC[C@H](NC(=O)[C@@H](N)CCCCNC(=O)COCCOCCNC(=O)CC[C@H](NC(=O)CCCCCCCCCCCCCCCCCCC(=O)O)C(=O)O)C(=O)N[C@@H](CC(N)=O)C(=O)N[C@@H]([C@@H](C)O)C(=O)N[C@@H](C)C(=O)N[C@@H]([C@@H](C)O)C(=O)N1)[C@@H](C)O)C(=O)N1CCC[C@H]1C(=O)N[C@@H](CO)C(=O)N[C@@H](CO)C(=O)N[C@H](C(=O)N1CCC[C@H]1C(=O)N[C@H](C(=O)NCC(=O)N[C@@H](CO)C(=O)N[C@@H](CC(N)=O)C(=O)N[C@H](C(=O)N[C@@H](Cc1ccc(O)cc1)C(N)=O)[C@@H](C)O)C(C)C)[C@@H](C)O [Example 73] (H-K([AEEA-γGlu-C20 diacid])CNTATCATQRLASFLRHSSPNFGAIPSSTPVGSNTY-NH2; disulfide 2-7 (inferred))	11.3	11.3	12	11.3
